In ChEMBL document CHEMBL1130409, “Hydrazide-containing inhibitors of HIV-1 integrase” (J Med Chem, 1997):

What was measured:
[1] = molecular target: T1, Human immunodeficiency virus type 1 integrase (Human immunodeficiency virus 1, UniProt Q7ZJM1); experiment: Inhibition of HIV-1 integrase enzyme by 3'-processing method
[2] = molecular target: T1, Human immunodeficiency virus type 1 integrase; experiment: Inhibition of HIV-1 integrase enzyme
[3] = molecular target: T1, Human immunodeficiency virus type 1 integrase; experiment: Inhibition of HIV-1 integrase enzyme by 3'-processing method (experiment 1)
[4] = molecular target: T1, Human immunodeficiency virus type 1 integrase; experiment: Inhibition of HIV-1 integrase enzyme by 3'-processing method (experiment 2)
[5] = molecular target: T1, Human immunodeficiency virus type 1 integrase; experiment: Inhibition of HIV-1 integrase enzyme by integration method (experiment 1)
[6] = molecular target: T1, Human immunodeficiency virus type 1 integrase; experiment: Inhibition of HIV-1 integrase enzyme by integration method (experiment 2)
[7] = molecular target: T1, Human immunodeficiency virus type 1 integrase; experiment: Inhibition of HIV-1 integrase enzyme by integration method

T1 sequence (Q7ZJM1 whole entry): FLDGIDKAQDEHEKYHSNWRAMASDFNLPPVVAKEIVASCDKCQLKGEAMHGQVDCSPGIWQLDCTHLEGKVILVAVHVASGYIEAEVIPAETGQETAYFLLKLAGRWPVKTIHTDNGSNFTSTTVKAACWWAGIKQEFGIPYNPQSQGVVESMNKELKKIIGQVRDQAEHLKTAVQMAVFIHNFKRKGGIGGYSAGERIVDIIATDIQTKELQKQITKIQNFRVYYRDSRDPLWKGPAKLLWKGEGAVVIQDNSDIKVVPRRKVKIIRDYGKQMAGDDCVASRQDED

| SMILES | IC50 [1] [µM] | IC50 [2] [µM] | further results |
| --- | --- | --- | --- |
| Nc1ccccc1C(=O)NNC(=O)c1ccccc1N | > 100 | > 100 |  |
| O=C(NNC(=O)c1ccccc1)c1ccccc1 | > 100 | > 100 |  |
| NNC(=O)c1ccccc1N | > 100 | > 100 |  |
| NNC(=O)c1ccccc1O |  |  | IC50 [3]: 46 µM; IC50 [4]: 114 µM; IC50 [5]: 33 µM; IC50 [6]: 43 µM |
| O=C(NNC(=O)c1ccccn1)c1ccccn1 | > 100 | > 100 |  |
| NNC(=O)c1ccccc1S |  |  | IC50 [3]: 70 µM; IC50 [4]: 79.6 µM; IC50 [5]: 57.5 µM; IC50 [6]: 50 µM |
| NN(CC(O)COc1ccccc1)C(=O)c1ccccc1O (stereo not given) | > 200 | > 200 |  |
| O=C(NNCC(O)COc1ccccc1)c1ccccc1O (stereo not given) | > 200 |  | IC50 [7]: > 200 µM |
| O=C(N/N=C/c1ccccc1O)c1ccccc1O | > 100 | > 100 |  |
| O=C(NNC(=O)c1ccccc1O)c1ccccc1O | 2.07 | 0.73 |  |
| O=C(NNC(=O)c1cc2ccccc2cc1O)c1ccccc1O | 2.3 | 1.1 |  |
| O=C(NCCCNC(=O)c1ccccc1O)c1ccccc1O | > 200 | > 200 |  |

The next lines start with results.

| IC50 [1] [µM] | IC50 [2] [µM] | SMILES | further results |
| --- | --- | --- | --- |
| > 100 | > 100 | Nc1ccccc1C(=O)NNC(=O)c1ccccc1O |  |
| > 100 | > 100 | O=C(NNC(=O)c1ccccc1O)c1ccccc1 |  |
| > 100 | > 100 | CC(=O)NNC(=O)c1ccccc1O |  |
| 9.1 | 5.8 | O=C(NNC(=O)c1ccccc1S)c1ccccc1O |  |
| 6.7 | 5.2 | O=C(NNCc1ccccc1O)c1ccccc1O |  |
| > 100 | > 100 | NC(=O)c1ccccc1O [SALICYLAMIDE] |  |
